Source: ChEMBL document CHEMBL1146061, “Novel, potent P2-P3 pyrrolidine derivatives of ketoamide-based cathepsin K inhibitors” (Bioorg Med Chem Lett, 2006)
Converted amounts (≈) assume the structure as drawn.

Key:
Cathepsin K = target: T1, Cathepsin K (Homo sapiens, UniProt P43235); experiment: Inhibition of recombinant human cathepsin K by fluorescence assay
T1 sequence (P43235 whole entry): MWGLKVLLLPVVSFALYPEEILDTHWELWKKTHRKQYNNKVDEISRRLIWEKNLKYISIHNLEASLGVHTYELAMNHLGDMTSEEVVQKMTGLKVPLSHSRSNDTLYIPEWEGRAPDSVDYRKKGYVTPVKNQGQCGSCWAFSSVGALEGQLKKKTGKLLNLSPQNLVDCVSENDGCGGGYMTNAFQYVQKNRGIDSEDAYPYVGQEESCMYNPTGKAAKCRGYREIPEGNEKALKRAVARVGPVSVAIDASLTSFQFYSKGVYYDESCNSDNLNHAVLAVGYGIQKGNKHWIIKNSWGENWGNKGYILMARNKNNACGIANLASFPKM

[1] = Permeability in MDCK cell line; type: ADME, cell-based, Canis lupus familiaris; conditions: dog
[2] = Solubility in fasted state-simulated intestinal fluid at pH 6.8; type: physicochemical
[3] = Half life in Han Wistar rat iv; type: ADME, organism-based; conditions: in vivo
[4] = Clearance in Han Wistar rat; type: ADME, organism-based; conditions: in vivo
[5] = Volume of distribution in Han Wistar rat; type: ADME, organism-based; conditions: in vivo, read-out: Vss
[6] = Oral bioavailability in Han Wistar rat; type: ADME, organism-based; conditions: in vivo

Row | SMILES | IC50 (Cathepsin K) [nM] | Papp [1] [×10⁻⁶ cm/s] | solubility [2] [µg/mL] | half-life [3] [h] | clearance [4] [mL/min/kg] | Vd [5] [L/kg] | bioavailability [6] [%]
1 | CCCC[C@H](NC(=O)O[C@@H]1C(=O)N(C(=O)c2cc3ccccc3s2)CC1(C)C)C(=O)C(=O)N[C@H](C)c1ccccc1 | 2.8 | – | – | – | – | – | –
2 | CCCC[C@H](NC(=O)O[C@@H]1C(=O)N(C(=O)c2cccnc2)CC1(C)C)C(=O)C(=O)N[C@H](C)c1ccccc1 | 14 | 21 | 85 (≈ 163 µM) | 1.57 | 34 | 0.55 | 45
3 | CCCC[C@H](NC(=O)O[C@@H]1C(=O)N(S(=O)(=O)Cc2ccccc2)CC1(C)C)C(=O)C(=O)N[C@H](C)c1ccccc1 | 17 | – | – | – | – | – | –
4 | CCCC[C@H](NC(=O)O[C@@H]1C(=O)N(Cc2ccccc2)CC1(C)C)C(=O)C(=O)N[C@H](C)c1ccccc1 | 21 | – | – | – | – | – | –
5 | CCCC[C@H](NC(=O)O[C@@H]1C(=O)N(C(=O)Cc2ccccc2)CC1(C)C)C(=O)C(=O)N[C@H](C)c1ccccc1 | 3 | 41 | 68 (≈ 127 µM) | 1.05 | 26 | 1.5 | 29
6 | CCCC[C@H](NC(=O)O[C@@H]1C(=O)N(C(=O)Oc2ccc3ccccc3c2)CC1(C)C)C(=O)C(=O)N[C@H](C)c1ccccc1 | 58 | – | – | – | – | – | –
7 | CCCC[C@H](NC(=O)O[C@@H]1C(=O)N(C(=O)Oc2ccc(-c3ccccc3)cc2)CC1(C)C)C(=O)C(=O)N[C@H](C)c1ccccc1 | 5 | – | – | – | – | – | –
8 | CCCC[C@H](NC(=O)O[C@@H]1C(=O)N(C(=O)Nc2ccc(C(F)(F)F)cc2)CC1(C)C)C(=O)C(=O)Nc1cc[nH]n1 | 0.42 | 1.8 | 140 (≈ 247 µM) | 1.25 | 77 | 2.6 | 26
9 | CCCC[C@H](NC(=O)O[C@@H]1C(=O)N(C(=O)c2ccc3ccccc3c2)CC1(C)C)C(=O)C(=O)N[C@H](C)c1ccccc1 | 1.6 | – | – | – | – | – | –
10 | CCCC[C@H](NC(=O)O[C@@H]1C(=O)N(C(=O)c2ccccc2)CC1(C)C)C(=O)C(=O)N[C@H](C)c1ccccc1 | 65 | – | – | – | – | – | –
11 | CCCC[C@H](NC(=O)O[C@@H]1C(=O)N(C(=O)N2CCOCC2)CC1(C)C)C(=O)C(=O)N[C@H](C)c1ccccc1 | 16 | – | – | – | – | – | –
12 | CCCC[C@H](NC(=O)O[C@@H]1C(=O)N(C(=O)Nc2ccccc2)CC1(C)C)C(=O)C(=O)N[C@H](C)c1ccccc1 | 4.3 | – | – | – | – | – | –
13 | CCCC[C@H](NC(=O)O[C@@H]1C(=O)N(C(=O)c2nc3ccccc3s2)CC1(C)C)C(=O)C(=O)Nc1ccn[nH]1 | 0.81 | 25 | 160 (≈ 296 µM) | 3 | 65 | 2.2 | 14
14 | CCCC[C@H](NC(=O)O[C@@H]1C(=O)N(C(=O)Oc2ccccc2)CC1(C)C)C(=O)C(=O)N[C@H](C)c1ccccc1 | 29 | – | – | – | – | – | –
15 | CCCC[C@H](NC(=O)O[C@@H]1C(=O)N(C(=O)Nc2ccc(C(F)(F)F)cc2)CC1(C)C)C(=O)C(=O)N[C@H](C)c1ccccc1 | 2.1 | – | – | – | – | – | –
16 | CCCC[C@H](NC(=O)O[C@@H]1C(=O)N(C(=O)NCCc2ccccc2)CC1(C)C)C(=O)C(=O)N[C@H](C)c1ccccc1 | 6.6 | – | – | – | – | – | –
17 | CCCC[C@H](NC(=O)O[C@@H]1C(=O)N(C(=O)c2ccc(-c3ccccc3)cc2)CC1(C)C)C(=O)C(=O)N[C@H](C)c1ccccc1 | 6.9 | – | – | – | – | – | –
18 | CCCC[C@H](NC(=O)O[C@@H]1C(=O)N(C(=O)Nc2c(C)noc2C)CC1(C)C)C(=O)C(=O)N[C@H](C)c1ccccc1 | 15 | 1.2 | 320 (≈ 576 µM) | 0.583 | 83 | 1.4 | 8.8
19 | CCCC[C@H](NC(=O)O[C@@H]1C(=O)N(C(=O)CCCc2ccccc2)CC1(C)C)C(=O)C(=O)N[C@H](C)c1ccccc1 | 27 | – | – | – | – | – | –
20 | CCCC[C@H](NC(=O)O[C@@H]1C(=O)N(C(=O)NCc2ccccc2)CC1(C)C)C(=O)C(=O)N[C@H](C)c1ccccc1 | 3.8 | 21 | 53 (≈ 96.2 µM) | 1.02 | 32 | 1.4 | 21
21 | CCCC[C@H](NC(=O)O[C@@H]1C(=O)N(C(=O)c2nnc(C(F)(F)F)s2)CC1(C)C)C(=O)C(=O)Nc1cc[nH]n1 | 1 | 12 | – | 1.35 | 79 | 3.3 | 13
22 | CCCC[C@H](NC(=O)O[C@@H]1C(=O)N(C(=O)OCc2ccccc2)CC1(C)C)C(=O)C(=O)N[C@H](C)c1ccccc1 | 24 | – | – | – | – | – | –
23 | CCCC[C@H](NC(=O)O[C@@H]1C(=O)N(C(=O)c2ccno2)CC1(C)C)C(=O)C(=O)N[C@H](C)c1ccccc1 | 8.9 | 48 | 68 (≈ 133 µM) | 0.6 | 18 | 0.5 | 8.6
24 | CCCC[C@H](NC(=O)O[C@@H]1C(=O)N(C(=O)OCCc2ccccc2)CC1(C)C)C(=O)C(=O)N[C@H](C)c1ccccc1 | 32 | – | – | – | – | – | –
25 | CCCC[C@H](NC(=O)O[C@@H]1C(=O)N(C(=O)c2ccc3[nH]ccc3c2)CC1(C)C)C(=O)C(=O)N[C@H](C)c1ccccc1 | 1.7 | – | – | – | – | – | –
26 | CCCC[C@H](NC(=O)O[C@@H]1C(=O)N(C(=O)OCc2ccc(-c3ccccc3)cc2)CC1(C)C)C(=O)C(=O)N[C@H](C)c1ccccc1 | 2.1 | – | – | – | – | – | –
27 | CCCC[C@H](NC(=O)O[C@@H]1C(=O)N(S(=O)(=O)c2ccccc2)CC1(C)C)C(=O)C(=O)N[C@H](C)c1ccccc1 | 8.3 | – | – | 2.5 | 27 | 2.1 | 25
